Read-outs that look alike come from different tables or passages of the source.
What was measured:
normal BDF₁ mice [1] = system: normal BDF₁ mice
Description: The effect of carbetimer on acute adriamycin toxicity in normal BDF₁ mice was evaluated. Normal BDF₁ mice were treated with carbetimer alone at 1700 mg/kg i.p. with adriamycin alone at 21 mg/kg i.v. or the combination of the two drugs, carbetimer being given half an hour before adriamycin. […] Data are reported in Table I and depicted in Figure 1.

normal BDF₁ mice [2] = system: normal BDF₁ mice; remark: listed apart in the source
Description: The effect of carbetimer on sub-acute adriamycin toxicity in normal BDF₁ mice was evaluated. Normal BDF₁ mice were treated either with adriamycin alone at 21 mg/kg i.v. or with adriamycin at 21 mg/kg i.v. plus carbetimer 500 mg/kg i.v. given concurrently. […]

normal BDF₁ mice [3] = system: normal BDF₁ mice; remark: listed apart in the source
Description: (§1) The effect of carbetimer on sub-acute adriamycin toxicity in normal BDF₁ mice was evaluated. Normal BDF₁ mice were treated either with adriamycin alone at 21 mg/kg i.v. or with adriamycin at 21 mg/kg i.v. plus carbetimer 125 mg/kg i.v. given concurrently. […] Data are reported in Table IV in absolute weights of animals and depicted in Figure 4 in terms of percent of original weights of the animals.

normal BDF₁ mice [4] = system: normal BDF₁ mice; remark: listed apart in the source
Description: as §1, with “250” for “125”, “III” for “IV”, “3” for “4”

MIA C51 cell line = test: Trial VI: survival of rats inoculated with tumor cells; format: in vivo; conditions: Adriamycin 10 mg/kg i.v. Day One Only
Description: Rats were inoculated with a million cells of MIA C51 cell line. Thereafter, animals were treated with saline control, carbetimer alone at 1700 mg/kg in days 1-5, or adriamycin at 10 mg/kg i.v., or adriamycin 10 mg/kg i.v. plus carbetimer at 1700 mg/kg i.p. Animals treated with the combination of carbetimer and adriamycin remained alive 40 days after treatment. The combination therapy provided greater tumor remission than carbetimer alone or adriamycin alone, indicating two drugs may act in an additive or synergistic manner to cure tumors in tumor-bearing rats. Data are reported in Table VI and depicted in Figure 6.

[5] = lethal dose of adriamycin alone, 21 mg/kg i.v.
[6] = Adriamycin alone 21 mg/kg i.v., Day 6

## COc1cccc2c1C(=O)c1c(O)c3c(c(O)c1C2=O)C[C@@](O)(C(=O)CO)C[C@@H]3O[C@H]1C[C@H](N)[C@H](O)[C@H](C)O1 [Adriamycin, doxorubicin]
Normal BDF₁ mice [1]; Adriamycin 21 mg/kg i.v., 7 days post-treatment
  mortality: all dead
Normal BDF₁ mice [1]; [5]
  time to death from start of the therapy: ≤ 8 days
Normal BDF₁ mice [2]; [6]
  mortality: all dead
Normal BDF₁ mice [2]; [5]
  time to death from start of the therapy: ≤ 8 days
Normal BDF₁ mice [3]; [6]
  mortality: all dead
Normal BDF₁ mice [3]; [5]
  time to death from start of the therapy: ≤ 10 days
Normal BDF₁ mice [4]; Adriamycin alone 21 mg/kb i.v., Day 6
  mortality: all dead
Normal BDF₁ mice [4]; [5]
  time to death from start of the therapy: ≤ 8 days
MIA C51 cell line; Days 0-8
  % Rats Alive After Treatment: 100%
MIA C51 cell line; Days 9-10
  % Rats Alive After Treatment: 100%
MIA C51 cell line; Days 11-26
  % Rats Alive After Treatment: 100%
MIA C51 cell line; Days 27-29
  % Rats Alive After Treatment: 80%
MIA C51 cell line; Days 30-32
  % Rats Alive After Treatment: 0%
MIA C51 cell line; Days 33-40
  % Rats Alive After Treatment: 0%
MIA C51 cell line; Days 41-43
  % Rats Alive After Treatment: 0%

From EP0393575B1, “Neoplasia treatment compositions containing antineoplastic agent and side-effect reducing protective agent” (priority 1989, dated 1990)
